Numbers after ± are expanded uncertainties.
Experiment: refractive index (other wavelength) (dimensionless); xn = mol fraction of the nth substance listed
Settings: 101 kPa, Liquid, Standard Abbe refractometry

CC(C)OC(C)C [diisopropyl ether] + CC(C)O
Settings	refractive index
313.15 K, Wavelength=644 nm, x1 = 0.9547	1.35601 ± 0.00043
313.15 K, Wavelength=644 nm, x1 = 0.973	1.3557 ± 0.00043
313.15 K, Wavelength=644 nm, x1 = 0.9771	1.35587 ± 0.00043
313.15 K, Wavelength=644 nm, x1 = 1	1.35543 ± 0.00043
313.15 K, Wavelength=706.5 nm, x1 = 0.0277	1.36533 ± 0.00032
313.15 K, Wavelength=706.5 nm, x1 = 0.0507	1.36524 ± 0.00032
313.15 K, Wavelength=706.5 nm, x1 = 0.051	1.3652 ± 0.00032
313.15 K, Wavelength=706.5 nm, x1 = 0.0717	1.36485 ± 0.00032
313.15 K, Wavelength=706.5 nm, x1 = 0.1528	1.36418 ± 0.00032
313.15 K, Wavelength=706.5 nm, x1 = 0.1553	1.36418 ± 0.00032
313.15 K, Wavelength=706.5 nm, x1 = 0.1938	1.36394 ± 0.00033
313.15 K, Wavelength=706.5 nm, x1 = 0.2029	1.36337 ± 0.00033
313.15 K, Wavelength=706.5 nm, x1 = 0.245	1.36294 ± 0.00033
313.15 K, Wavelength=706.5 nm, x1 = 0.297	1.36209 ± 0.00034
313.15 K, Wavelength=706.5 nm, x1 = 0.2973	1.3623 ± 0.00034
313.15 K, Wavelength=706.5 nm, x1 = 0.3068	1.36204 ± 0.00034
313.15 K, Wavelength=706.5 nm, x1 = 0.398	1.36071 ± 0.00034
313.15 K, Wavelength=706.5 nm, x1 = 0.4609	1.35999 ± 0.00035
313.15 K, Wavelength=706.5 nm, x1 = 0.5434	1.35908 ± 0.00036
313.15 K, Wavelength=706.5 nm, x1 = 0.6032	1.35834 ± 0.00037
313.15 K, Wavelength=706.5 nm, x1 = 0.6371	1.358 ± 0.00038
313.15 K, Wavelength=706.5 nm, x1 = 0.701	1.35723 ± 0.00039
313.15 K, Wavelength=706.5 nm, x1 = 0.754	1.35681 ± 0.00039
313.15 K, Wavelength=706.5 nm, x1 = 0.791	1.35641 ± 0.0004
313.15 K, Wavelength=706.5 nm, x1 = 0.8296	1.35602 ± 0.00041
313.15 K, Wavelength=706.5 nm, x1 = 0.8864	1.35589 ± 0.00042
313.15 K, Wavelength=706.5 nm, x1 = 0.8903	1.35534 ± 0.00042
313.15 K, Wavelength=706.5 nm, x1 = 0.9113	1.3551 ± 0.00042
313.15 K, Wavelength=706.5 nm, x1 = 0.9547	1.3546 ± 0.00043
313.15 K, Wavelength=706.5 nm, x1 = 0.973	1.35426 ± 0.00043
313.15 K, Wavelength=706.5 nm, x1 = 0.9771	1.35416 ± 0.00043
313.15 K, Wavelength=706.5 nm, x1 = 1	1.35401 ± 0.00043
318.15 K, Wavelength=404.7 nm, x1 = 0.0277	1.37668 ± 0.00032
318.15 K, Wavelength=404.7 nm, x1 = 0.0507	1.37662 ± 0.00032
318.15 K, Wavelength=404.7 nm, x1 = 0.051	1.37654 ± 0.00032
318.15 K, Wavelength=404.7 nm, x1 = 0.0717	1.37616 ± 0.00032
318.15 K, Wavelength=404.7 nm, x1 = 0.1528	1.3755 ± 0.00032
318.15 K, Wavelength=404.7 nm, x1 = 0.1553	1.3755 ± 0.00032
318.15 K, Wavelength=404.7 nm, x1 = 0.1938	1.37525 ± 0.00033
318.15 K, Wavelength=404.7 nm, x1 = 0.2029	1.37457 ± 0.00033
318.15 K, Wavelength=404.7 nm, x1 = 0.245	1.374 ± 0.00033
318.15 K, Wavelength=404.7 nm, x1 = 0.297	1.37308 ± 0.00034
318.15 K, Wavelength=404.7 nm, x1 = 0.2973	1.37334 ± 0.00034
318.15 K, Wavelength=404.7 nm, x1 = 0.3068	1.37306 ± 0.00034
318.15 K, Wavelength=404.7 nm, x1 = 0.398	1.37184 ± 0.00035
318.15 K, Wavelength=404.7 nm, x1 = 0.4609	1.37087 ± 0.00035
318.15 K, Wavelength=404.7 nm, x1 = 0.5434	1.36988 ± 0.00036
318.15 K, Wavelength=404.7 nm, x1 = 0.6032	1.36911 ± 0.00037
318.15 K, Wavelength=404.7 nm, x1 = 0.6371	1.36872 ± 0.00038
318.15 K, Wavelength=404.7 nm, x1 = 0.701	1.36791 ± 0.00039
318.15 K, Wavelength=404.7 nm, x1 = 0.754	1.36743 ± 0.00039
318.15 K, Wavelength=404.7 nm, x1 = 0.791	1.36699 ± 0.0004
318.15 K, Wavelength=404.7 nm, x1 = 0.8296	1.36655 ± 0.00041
318.15 K, Wavelength=404.7 nm, x1 = 0.8864	1.36644 ± 0.00042
318.15 K, Wavelength=404.7 nm, x1 = 0.8903	1.36584 ± 0.00042
318.15 K, Wavelength=404.7 nm, x1 = 0.9113	1.36554 ± 0.00042
318.15 K, Wavelength=404.7 nm, x1 = 0.9547	1.3651 ± 0.00043
318.15 K, Wavelength=404.7 nm, x1 = 0.973	1.3647 ± 0.00043
318.15 K, Wavelength=404.7 nm, x1 = 0.9771	1.36468 ± 0.00043
318.15 K, Wavelength=404.7 nm, x1 = 1	1.36447 ± 0.00044
318.15 K, Wavelength=435.8 nm, x1 = 0.0277	1.37373 ± 0.00032
318.15 K, Wavelength=435.8 nm, x1 = 0.0507	1.37367 ± 0.00032
318.15 K, Wavelength=435.8 nm, x1 = 0.051	1.3736 ± 0.00032
318.15 K, Wavelength=435.8 nm, x1 = 0.0717	1.37322 ± 0.00032
318.15 K, Wavelength=435.8 nm, x1 = 0.1528	1.37255 ± 0.00032
318.15 K, Wavelength=435.8 nm, x1 = 0.1553	1.37255 ± 0.00032
318.15 K, Wavelength=435.8 nm, x1 = 0.1938	1.37231 ± 0.00033
318.15 K, Wavelength=435.8 nm, x1 = 0.2029	1.37164 ± 0.00033
318.15 K, Wavelength=435.8 nm, x1 = 0.245	1.37107 ± 0.00033
318.15 K, Wavelength=435.8 nm, x1 = 0.297	1.37014 ± 0.00034
318.15 K, Wavelength=435.8 nm, x1 = 0.2973	1.3704 ± 0.00034
318.15 K, Wavelength=435.8 nm, x1 = 0.3068	1.37013 ± 0.00034
318.15 K, Wavelength=435.8 nm, x1 = 0.398	1.36891 ± 0.00035
318.15 K, Wavelength=435.8 nm, x1 = 0.4609	1.36796 ± 0.00035
318.15 K, Wavelength=435.8 nm, x1 = 0.5434	1.36693 ± 0.00036
318.15 K, Wavelength=435.8 nm, x1 = 0.6032	1.36618 ± 0.00037
318.15 K, Wavelength=435.8 nm, x1 = 0.6371	1.36578 ± 0.00038
318.15 K, Wavelength=435.8 nm, x1 = 0.701	1.36501 ± 0.00039
318.15 K, Wavelength=435.8 nm, x1 = 0.754	1.36453 ± 0.00039
318.15 K, Wavelength=435.8 nm, x1 = 0.791	1.36408 ± 0.0004
318.15 K, Wavelength=435.8 nm, x1 = 0.8296	1.36364 ± 0.00041
318.15 K, Wavelength=435.8 nm, x1 = 0.8864	1.36355 ± 0.00042
318.15 K, Wavelength=435.8 nm, x1 = 0.8903	1.36294 ± 0.00042
318.15 K, Wavelength=435.8 nm, x1 = 0.9113	1.36264 ± 0.00042
318.15 K, Wavelength=435.8 nm, x1 = 0.9547	1.36222 ± 0.00043
318.15 K, Wavelength=435.8 nm, x1 = 0.973	1.36182 ± 0.00043
318.15 K, Wavelength=435.8 nm, x1 = 0.9771	1.36178 ± 0.00043
318.15 K, Wavelength=435.8 nm, x1 = 1	1.36157 ± 0.00044
318.15 K, Wavelength=486.1 nm, x1 = 0.0277	1.37036 ± 0.00032
318.15 K, Wavelength=486.1 nm, x1 = 0.0507	1.3703 ± 0.00032
318.15 K, Wavelength=486.1 nm, x1 = 0.051	1.37024 ± 0.00032
318.15 K, Wavelength=486.1 nm, x1 = 0.0717	1.36986 ± 0.00032
318.15 K, Wavelength=486.1 nm, x1 = 0.1528	1.36919 ± 0.00032
318.15 K, Wavelength=486.1 nm, x1 = 0.1553	1.36919 ± 0.00032
318.15 K, Wavelength=486.1 nm, x1 = 0.1938	1.36894 ± 0.00033
